# Activity calls are given as the source filed them.
# Columns and labels:
# [1] = NIH-3T3 fibroblast cytotoxicity, dose response, cytotoxicity control, cell-based, fluorescence, Alamar Blue, secondary assay (AID 2327); format: functional;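 note: NIH-3T3 mouse fibroblasts cultured with fluconazole at 8 µg/mL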
# [2] = C. albicans growth with fluconazole, confirmation, fluorescence, retest (AID 2467); format: functional, cell-based
# cells [3] = format: functional
# [4] = molecular target: T1, High affinity choline transporter 1 (Homo sapiens, UniProt Q9GZV3); assay: CHT inhibitors, dose response, cell-based, 5-point CRC, membrane potential dye (AID 504840); format: functional
# T1 sequence (Q9GZV3 whole entry): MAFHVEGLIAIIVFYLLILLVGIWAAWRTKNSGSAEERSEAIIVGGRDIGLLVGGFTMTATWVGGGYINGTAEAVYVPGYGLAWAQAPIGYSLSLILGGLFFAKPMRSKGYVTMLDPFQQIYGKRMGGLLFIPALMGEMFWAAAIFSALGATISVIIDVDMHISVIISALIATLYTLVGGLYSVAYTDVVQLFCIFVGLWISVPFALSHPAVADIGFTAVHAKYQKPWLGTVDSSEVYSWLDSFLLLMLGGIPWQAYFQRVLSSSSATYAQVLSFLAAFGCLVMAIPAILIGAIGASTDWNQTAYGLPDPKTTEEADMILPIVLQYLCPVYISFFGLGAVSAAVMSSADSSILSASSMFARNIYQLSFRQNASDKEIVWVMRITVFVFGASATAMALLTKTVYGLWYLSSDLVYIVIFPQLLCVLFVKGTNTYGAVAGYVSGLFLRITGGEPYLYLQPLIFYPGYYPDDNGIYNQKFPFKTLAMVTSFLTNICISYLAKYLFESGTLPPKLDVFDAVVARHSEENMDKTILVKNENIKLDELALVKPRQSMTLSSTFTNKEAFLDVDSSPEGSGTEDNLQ
# Protein skinhead-1 = molecular target: T2, Protein skinhead-1 (Caenorhabditis elegans, UniProt P34707); format: functional
# T2 sequence (P34707 whole entry): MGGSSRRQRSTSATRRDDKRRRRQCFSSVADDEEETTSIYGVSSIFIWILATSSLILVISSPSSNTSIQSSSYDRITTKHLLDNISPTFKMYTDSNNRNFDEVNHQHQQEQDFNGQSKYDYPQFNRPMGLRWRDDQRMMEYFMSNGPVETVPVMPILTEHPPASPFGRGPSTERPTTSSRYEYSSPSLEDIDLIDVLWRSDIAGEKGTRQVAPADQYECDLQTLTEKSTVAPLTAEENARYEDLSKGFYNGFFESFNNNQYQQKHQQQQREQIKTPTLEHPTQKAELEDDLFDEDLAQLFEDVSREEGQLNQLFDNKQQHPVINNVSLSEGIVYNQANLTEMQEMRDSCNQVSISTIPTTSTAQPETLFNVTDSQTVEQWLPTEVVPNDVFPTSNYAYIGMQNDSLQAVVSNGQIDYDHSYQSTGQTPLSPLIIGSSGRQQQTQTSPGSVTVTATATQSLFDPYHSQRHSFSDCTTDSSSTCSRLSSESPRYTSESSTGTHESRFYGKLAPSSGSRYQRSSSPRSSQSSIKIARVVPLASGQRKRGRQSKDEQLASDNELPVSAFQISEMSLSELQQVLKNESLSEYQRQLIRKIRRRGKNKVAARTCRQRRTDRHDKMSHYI
# INS1 = assay: beta cell apoptosis inhibitors, cytokine rescue, dose response, luminescence, retest (AID 449756); format: functional, cell-based; conditions: Rattus norvegicus;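 note: cell death triggered by IL-1 beta plus TNF-alpha plus IFN-gamma mixture; protective hits raise ATP signal compared with cytokine alone wells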
# [5] = Shn3 3'UTR reporter inhibitors, dose response, cell-based, Clone20 osteoblasts, firefly luciferase, cherry-picked (AID 624132); format: functional;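 note: firefly luciferase luminescence from reporter carrying the Shn3 3'UTR in osteoblasts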
# [6] = HepG2 cell cytotoxicity, dose response, cytotoxicity control for Shn3 inhibitor project, CellTiter-Glo, cherry-picked (AID 624134); format: functional, cell-based
# [7] = control 3'UTR Renilla luciferase suppression, dose response, counter-screen for Shn3 inhibitor project, cell-based, Clone20-Shn3RL, cherry-picked (AID 624133); format: functional
# Protein Wnt-3a = Protein Wnt-3a (Mus musculus, UniProt P27467); assay: Wnt3a-driven reporter signaling inhibition, dose response, selectivity assay for Gli-SUFU antagonist project, Wnt-LIGHT cells, luminescence (AID 651570); format: functional; conditions: read-out: IC50_Mean;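 note: Wnt-LIGHT reporter cells stimulated with conditioned medium from Wnt3a-producing cells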
# [8] = molecular target: T3, Low molecular weight phosphotyrosine protein phosphatase (Homo sapiens, UniProt P24666); format: functional; conditions: read-out: IC50_Mean
# T3 sequence (P24666 whole entry): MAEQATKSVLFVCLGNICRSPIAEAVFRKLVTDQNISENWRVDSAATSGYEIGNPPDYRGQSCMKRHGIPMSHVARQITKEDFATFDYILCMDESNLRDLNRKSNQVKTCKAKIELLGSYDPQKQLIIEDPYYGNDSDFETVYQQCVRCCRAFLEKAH
# [9] = molecular target: T3, Low molecular weight phosphotyrosine protein phosphatase; format: functional; conditions: read-out: IC50_Mean; remark: listed apart in the source
# [10] = Fluorescence-based cell-based high throughput dose response assay for inhibitors of the interaction of nucleotide-binding oligomerization domain containing 2 (NOD2) and the receptor-interacting serine-threonine kinase 2 (RIPK2).; format: functional; conditions: Homo sapiens
# [11] = molecular target: Neurotensin receptor type 1 (Homo sapiens, UniProt P30989); format: functional;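 note: Image-based confirmatory dose-response assay measuring agonist activity at NTR1; NTR1-expressing U2OS osteosarcoma cells imaged for beta-arrestin GFP spot formation; agonist potency where compounds increase beta-arrestin recruitment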
# [12] = molecular target: Heat shock protein HSP 90-alpha (Homo sapiens, UniProt P07900); format: functional, organism-based
# Vero [13] = assay: cells; format: functional, cell-based; conditions: Chlorocebus sabaeus
# [14] = HeLa cell cytotoxicity, dose response, cytotoxicity control for MgcRacGAP inhibitor project (AID 624300); format: functional
# [15] = molecular target: T4, Rac GTPase-activating protein 1 (Homo sapiens, UniProt Q9H0H5); assay: MgcRacGAP GTPase-activating activity inhibitors, confirmation, biochemical, ADP Hunter fluorescence, primary and confirmatory (AID 624330); format: functional
# T4 sequence (Q9H0H5 whole entry): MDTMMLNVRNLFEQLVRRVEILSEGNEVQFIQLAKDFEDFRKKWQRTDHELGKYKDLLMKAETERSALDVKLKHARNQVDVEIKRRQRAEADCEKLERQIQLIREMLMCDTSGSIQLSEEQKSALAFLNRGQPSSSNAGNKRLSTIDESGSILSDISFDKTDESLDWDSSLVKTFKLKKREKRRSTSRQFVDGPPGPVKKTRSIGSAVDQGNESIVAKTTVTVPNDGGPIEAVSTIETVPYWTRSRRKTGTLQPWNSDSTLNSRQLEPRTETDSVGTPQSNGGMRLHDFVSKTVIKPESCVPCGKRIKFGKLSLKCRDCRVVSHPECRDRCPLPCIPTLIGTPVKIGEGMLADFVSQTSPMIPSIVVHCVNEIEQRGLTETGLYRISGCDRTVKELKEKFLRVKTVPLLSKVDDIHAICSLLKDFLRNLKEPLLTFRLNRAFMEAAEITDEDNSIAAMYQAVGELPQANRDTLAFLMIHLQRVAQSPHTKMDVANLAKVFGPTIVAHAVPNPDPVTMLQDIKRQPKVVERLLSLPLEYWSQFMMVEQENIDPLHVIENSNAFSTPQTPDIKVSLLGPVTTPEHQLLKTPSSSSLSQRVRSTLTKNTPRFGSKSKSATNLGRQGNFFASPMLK
# [16] = molecular target: SWI/SNF-related matrix-associated actin-dependent regulator of chromatin subfamily A member 2 (Homo sapiens, UniProt P51531); assay: Luminescence-based cell-based high throughput dose response assay to identify activators of the function of SWI/SNF related, matrix associated, actin dependent regulator of chromatin, subfamily a, member 2 (SMARCA2, BRM).; format: functional
# [17] = Counterscreen for activators of the function of SWI/SNF related, matrix associated, actin dependent regulator of chromatin, subfamily a, member 2 (SMARCA2, BRM): Luminescence-based cell-based high throughput dose response assay to identify non-selective compounds using the VP16 reporter assay.; format: functional
# [18] = HEp-2 cell cytotoxicity, dose response, cytotoxicity control for RSV inhibitor project, HTS (AID 2410); format: functional; conditions: human respiratory syncytial virus
# cells [19] = assay: cells
# HEK293 = assay: inhibitors of LMP1-driven NF-kB reporter, dose response, cell-based, HEK293, luciferase, cherry-pick (AID 588343); format: functional; conditions: Homo sapiens
# Vero [20] = assay: cells; format: functional; conditions: Chlorocebus sabaeus
# [21] = Luminescence Cell-Based Dose Confirmation HTS to Identify Activators of 5'UTR Stem-Loop Driven Alpha-Synuclein mRNA Translation in H4 Neuroglioblastoma Cells. [Related pubchem assays: 1829 (Project Summary), 1814 (Primary HTS)]; format: functional
# [22] = Luminescence Cell-Based Dose Response HTS to Identify Activators of Luciferase Translation or Activity in H4 […] Cells. [Related pubchem assays: 1829 (Project Summary), 1814 (Primary HTS)]; format: functional
# BJ [23] = assay: cytotoxicity toward BJ-TERT fibroblasts, dose response, cell-based, RAS-independent, luminescence (AID 1933); format: functional; conditions: Homo sapiens
# cells [24] = format: functional, cell-based
# H4 = assay: Luminescence Cell-Based Dose Response HTS to Identify Activators of 5'UTR Stem-Loop Driven Prion Protein mRNA Translation in H4 Neuroglioblastoma Cells. [Related pubchem assays: 1829 (Project Summary), 1814 (Primary HTS)]; format: functional; conditions: Homo sapiens
# BJ [25] = assay: cells; format: functional, cell-based; conditions: Homo sapiens
# cells [26] = format: functional, cell-based; remark: listed apart in the source
# BJ [27] = assay: cytotoxicity toward BJ-TERT-LT-ST fibroblasts, dose response, cell-based, RAS-independent, luminescence (AID 1935); format: functional; conditions: Homo sapiens;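 note: BJ fibroblasts immortalized with TERT plus LT and ST oncogenes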
# [28] = cytotoxicity toward DRD oncogenic fibroblasts, dose response, cell-based, non-viral oncogenic, luminescence (AID 1934); format: functional; conditions: Homo sapiens
# [29] = molecular target: T5, Microphthalmia-associated transcription factor (Homo sapiens, UniProt O75030); assay: TRPM1 promoter luciferase signal decrease, dose response, MITF inhibitor project, cell-based, SK-MEL-5, cherry-picked, set 3 (AID 493073); format: functional
# T5 sequence (O75030 whole entry): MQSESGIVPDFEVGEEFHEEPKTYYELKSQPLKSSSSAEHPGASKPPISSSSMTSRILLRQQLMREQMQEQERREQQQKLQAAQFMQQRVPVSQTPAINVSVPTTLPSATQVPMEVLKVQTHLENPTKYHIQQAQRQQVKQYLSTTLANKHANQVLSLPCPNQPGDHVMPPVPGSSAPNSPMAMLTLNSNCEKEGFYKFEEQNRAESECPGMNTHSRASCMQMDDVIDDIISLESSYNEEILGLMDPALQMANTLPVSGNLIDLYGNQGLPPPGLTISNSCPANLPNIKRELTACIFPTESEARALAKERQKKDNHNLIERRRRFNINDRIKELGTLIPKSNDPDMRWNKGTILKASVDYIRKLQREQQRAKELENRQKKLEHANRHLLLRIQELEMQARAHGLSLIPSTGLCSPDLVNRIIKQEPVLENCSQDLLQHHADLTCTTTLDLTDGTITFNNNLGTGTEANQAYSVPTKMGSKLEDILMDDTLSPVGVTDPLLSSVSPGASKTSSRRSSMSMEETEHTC
# Sequence of Protein Wnt-3a (P27467 whole entry): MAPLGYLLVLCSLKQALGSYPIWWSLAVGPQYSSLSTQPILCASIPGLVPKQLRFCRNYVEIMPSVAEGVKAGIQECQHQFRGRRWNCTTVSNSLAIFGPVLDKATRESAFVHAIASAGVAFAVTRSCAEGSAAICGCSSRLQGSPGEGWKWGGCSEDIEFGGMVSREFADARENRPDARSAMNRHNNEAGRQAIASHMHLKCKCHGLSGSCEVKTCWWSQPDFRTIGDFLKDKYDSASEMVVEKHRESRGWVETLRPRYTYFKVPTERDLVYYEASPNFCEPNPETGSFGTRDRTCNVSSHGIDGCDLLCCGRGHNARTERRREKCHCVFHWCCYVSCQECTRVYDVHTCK
# Sequence of SWI/SNF-related matrix-associated actin-dependent regulator of chromatin subfamily A member 2 (P51531 whole entry): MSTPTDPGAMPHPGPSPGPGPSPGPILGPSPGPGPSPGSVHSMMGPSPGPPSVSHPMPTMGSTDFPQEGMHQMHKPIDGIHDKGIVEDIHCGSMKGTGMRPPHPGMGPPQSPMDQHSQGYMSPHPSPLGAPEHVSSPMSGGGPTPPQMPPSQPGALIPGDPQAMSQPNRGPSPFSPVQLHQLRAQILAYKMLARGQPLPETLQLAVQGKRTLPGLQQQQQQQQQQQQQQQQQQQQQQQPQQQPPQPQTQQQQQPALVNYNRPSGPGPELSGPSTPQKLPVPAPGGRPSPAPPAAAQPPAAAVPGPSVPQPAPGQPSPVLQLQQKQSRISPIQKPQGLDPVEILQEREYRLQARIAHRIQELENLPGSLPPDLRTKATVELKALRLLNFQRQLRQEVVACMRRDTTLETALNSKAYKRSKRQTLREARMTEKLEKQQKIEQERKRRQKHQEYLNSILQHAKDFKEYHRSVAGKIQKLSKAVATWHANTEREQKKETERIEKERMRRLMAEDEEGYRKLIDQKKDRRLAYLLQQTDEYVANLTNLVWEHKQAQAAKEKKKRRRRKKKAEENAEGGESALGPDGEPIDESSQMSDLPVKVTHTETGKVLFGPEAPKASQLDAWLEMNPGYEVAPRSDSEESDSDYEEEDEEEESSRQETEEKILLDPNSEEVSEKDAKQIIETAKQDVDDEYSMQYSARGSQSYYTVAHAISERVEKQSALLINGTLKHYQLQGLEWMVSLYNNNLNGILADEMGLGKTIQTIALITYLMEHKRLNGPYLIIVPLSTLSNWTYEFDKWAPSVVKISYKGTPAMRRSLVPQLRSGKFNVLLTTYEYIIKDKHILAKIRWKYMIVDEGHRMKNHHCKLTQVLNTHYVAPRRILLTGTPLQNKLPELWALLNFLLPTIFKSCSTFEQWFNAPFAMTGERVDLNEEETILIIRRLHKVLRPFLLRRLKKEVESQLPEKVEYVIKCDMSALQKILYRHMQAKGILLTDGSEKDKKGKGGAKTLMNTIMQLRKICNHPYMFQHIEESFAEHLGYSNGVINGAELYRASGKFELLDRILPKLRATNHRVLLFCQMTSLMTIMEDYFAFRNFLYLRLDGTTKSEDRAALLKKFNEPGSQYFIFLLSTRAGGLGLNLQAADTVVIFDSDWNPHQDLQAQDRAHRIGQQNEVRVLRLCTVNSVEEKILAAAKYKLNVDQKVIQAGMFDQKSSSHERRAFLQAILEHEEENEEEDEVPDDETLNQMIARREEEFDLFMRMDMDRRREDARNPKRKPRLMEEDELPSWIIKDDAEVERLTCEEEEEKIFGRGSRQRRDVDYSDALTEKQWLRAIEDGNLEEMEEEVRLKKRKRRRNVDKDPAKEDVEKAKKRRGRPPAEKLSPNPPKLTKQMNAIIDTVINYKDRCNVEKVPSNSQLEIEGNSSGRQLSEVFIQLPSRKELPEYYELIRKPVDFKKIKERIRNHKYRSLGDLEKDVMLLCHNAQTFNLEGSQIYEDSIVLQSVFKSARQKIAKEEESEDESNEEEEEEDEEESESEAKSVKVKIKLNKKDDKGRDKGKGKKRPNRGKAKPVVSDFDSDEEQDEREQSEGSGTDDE
# Sequence of Neurotensin receptor type 1 (P30989 whole entry): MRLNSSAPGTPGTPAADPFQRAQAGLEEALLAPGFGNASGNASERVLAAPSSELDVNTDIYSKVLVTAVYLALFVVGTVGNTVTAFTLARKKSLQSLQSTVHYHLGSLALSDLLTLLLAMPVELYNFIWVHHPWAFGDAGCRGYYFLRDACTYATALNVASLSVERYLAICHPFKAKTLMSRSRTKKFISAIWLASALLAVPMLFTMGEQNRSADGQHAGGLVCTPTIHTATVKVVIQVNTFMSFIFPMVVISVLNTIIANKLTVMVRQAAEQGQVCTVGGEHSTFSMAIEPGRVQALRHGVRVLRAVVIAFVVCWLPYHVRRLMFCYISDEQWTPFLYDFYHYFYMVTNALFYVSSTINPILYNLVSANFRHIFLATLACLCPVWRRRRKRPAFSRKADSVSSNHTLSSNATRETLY
compound,measurement,setting,value
O=[N+]([O-])c1ccc(Nc2ccccc2)c2nonc12,EC50,[1],> 150 µM (inconclusive)
same,EC50,[2],< 0.03 µM (active)
same,IC50,cells [3],7.68 µM (active)
same,IC50,[4],11.8 µM (active)
same,IC50,Protein skinhead-1,41.5 µM (active)
COc1ccc(NS(=O)(=O)c2ccc(N3CCCCC3)c(N)c2)cc1,AC50,INS1,3.22 µM (active)
same,AC50,[5],0.824 µM (active)
same,AC50,[6],4.01 µM (active)
same,AC50,[7],1.51 µM (active)
same,IC50,Protein Wnt-3a,0.102 µM (active)
CNc1nc(NC)c2c[nH]nc2n1,IC50,[8],33 µM (inactive)
same,IC50,[9],9.16 µM (active)
CC1Sc2n(c3ccccc3[n+]2C)N=C1c1ccccc1 (stereo not drawn),IC50,Protein Wnt-3a,3.6 µM (active)
O=C(NCCN1C(=O)S/C(=C\c2ccc(Cl)c([N+](=O)[O-])c2)C1=O)C1=COCCO1,IC50,[10],1.62 µM (active)
COc1ccc(C(C[N+](=O)[O-])n2nc(C)cc2C)cc1 (stereo not drawn),EC50,[11],10.1 µM (active)
same,AC50,[12],1.94 µM (active)
same,IC50,[10],1.63 µM (active)
O=C(CCCN1C(=O)/C(=C\c2ccco2)SC1=S)Nc1ccc2ccccc2c1,IC50,Vero [13],8.01 µM (active)
Cc1cc(C)c(OCCCCNCc2ccccc2)c(Cl)c1,CC50,[14],69.7 µM (active)
same,IC50,[15],91.9 µM (active)
O=C(CNCc1c(F)cccc1F)N1CCC2(CC1)OCCO2,EC50,[16],> 91.3 µM (inactive)
same,EC50,[17],> 91.3 µM (inactive)
Cc1cccc(C(=O)Nc2ccccc2SCC2CSc3nc4ccccc4c(=O)n32)c1 (stereo not drawn),CC50,[18],43 µM (active)
same,IC50,Vero [13],> 25 µM (active)
same,IC50,cells [19],19.9 µM (active)
CC1CC(C)C(=O)C(C(CC2CC(=O)NC(=O)C2)OC(=O)CC(=O)c2ccccc2)C1 (stereo not drawn),AC50,HEK293,42.3 µM (active)
same,IC50,Vero [13],> 25 µM (active)
same,CC50,Vero [20],9.24 µM (active)
Cc1ccc(NC(=O)NCc2ccc3[nH]c(C)cc3c2)cc1,IC50,Vero [13],> 25 µM (active)
COc1cc(/C=C/C(=O)c2ccc3c(c2)OCCO3)cc(Br)c1OCC(=O)N(C)C,EC50,[21],5.83 µM (active)
same,EC50,[22],14.4 µM (active)
same,EC50,BJ [23],4.75 µM (active)
same,EC50,cells [24],> 350 µM (not active)
same,EC50,H4,> 120 µM (not active)
same,EC50,BJ [25],3.4 µM (inconclusive)
same,EC50,cells [26],> 350 µM (not active)
same,EC50,BJ [27],5.55 µM (inconclusive)
same,EC50,[28],5.43 µM (inconclusive)
same,AC50,[29],6.17 µM (active)
same,AC50,[5],2.63 µM (active)
same,AC50,[6],14.2 µM (active)
same,AC50,[7],8.52 µM (active)
Cc1c(-c2ccccc2)c(-c2ccc(OCCN(C)C)cc2)n2ccccc12,IC50,[8],31.3 µM (inactive)
same,IC50,[9],4.82 µM (active)
O=C(NNC(=S)Nc1ccc(Cl)cc1)c1ccccc1OC(F)F,IC50,[4],13.8 µM (active)
Cc1ccc(C(=O)C[n+]2cc(Br)cc(Br)c2)cc1,IC50,[4],11.4 µM (active)
CN1/C(=C\C(=O)COC(=O)CNC(=O)c2ccc3ccccc3c2)C(C)(C)c2ccccc21,IC50,Protein skinhead-1,> 100 µM (inactive)
same,IC50,Protein Wnt-3a,50 µM (inactive)

# Source: ChEMBL document CHEMBL1201862, “PubChem BioAssay data set” (2004)
